# Assay results published in patent US20250032514A1, “COMPOSITIONS AND METHODS FOR THE TREATMENT OF VARIOUS DISEASES” (Amylyx Pharmaceuticals, Inc., priority 2023, published 2025).
# Where two headings read alike, the source gives them in different places.
# Columns and labels:
# [1] = Study A35-002: single-dose PK of AMX0035, fasted vs high-fat meal, two-period cross-over; type: in vivo, human; conditions: for half-life: both sexes, human, plasma
# Protocol: The pharmacokinetics (PK) of PB and TURSO after a single dose administration of AMX0035 were determined in adult (40 to 55 years of age) male and female normal healthy participants. Fourteen participants received a single dose of AMX0035 on two occasions (with a washout between periods of no less than 4 days), after fasting or after a high-fat standardized meal in a balanced, two-period, cross-over design (Study A35-002).
# Clearance is rapid, and the terminal half-life (t1/2) is less than 1 hour. […] The primary metabolite of PB is phenylacetate (PAA), which occurs endogenously as a phenylalanine metabolite. […] Many participants had two or three peaks of absorption, which is consistent with bile acid storage and release upon a meal/snack. […] The primary metabolites of TURSO include ursodeoxycholic acid (UDCA) and glycoursodeoxycholic acid (GUDCA). All three are naturally occurring hydrophilic bile acids and subject to extensive enterohepatic recirculation.
# [2] = in vivo; cited from earlier work
# [3] = tested on: G93A SOD1 mouse model of ALS; conditions: cited from earlier work
# [4] = single oral dose of AMX0035, healthy adults
Structure (SMILES),"half-life ([1]; oral, fasting, read-out: terminal t1/2 (average) (converted))",terminal t1/2 (average) ([1]; fed),absorption of TURSO ([1]; given with or without food),Cmax in the presence of a high-fat meal ([1]; high-fat meal vs fasted),increase in exposure as AUC0-last in the presence of a high-fat meal ([1]; high-fat meal vs fasted),most common adverse reactions reported (≥1%) [2],"half-life ([1]; oral, under both the fed and fasted condition, read-out: terminal half-life (converted))","half-life ([1]; single oral dose of AMX0035, healthy adults, read-out: terminal half-life (t1/2))",absorption in the presence of a high-fat meal ([1]; high-fat meal vs fasted),overall exposure in the presence of a high-fat meal ([1]; high-fat meal vs fasted),"absorption of PB [1, 4]","clearance [1, 4]",survival in in vivo models [3]
"C[C@H](CCC(=O)NCCS(=O)(=O)O)[C@H]1CC[C@H]2[C@@H]3[C@@H](O)C[C@@H]4C[C@H](O)CC[C@]4(C)[C@H]3CC[C@]12C [TURSO, taurursodiol]",4.8 h,3.6 h,slowly absorbed,similar,less than 1 fold,"abdominal discomfort, abdominal pain, diarrhea, nausea, pruritus, and rash",,,,,,,
"O=C(O)CCCc1ccccc1 [PB, sodium phenylbutyrate]",,,,,,,~0.5 h,< 1 h,significantly slower,lower,rapidly absorbed,rapid,increase survival
